The values below come from patent US8569292B2, “Cyclic inhibitors of 11β-hydroxysteroid dehydrogenase 1” (Vitae Pharmaceuticals, Inc., priority 2008, dated 2013).

Test [1] concerns the target T1, 11β-HSD1 (Homo sapiens, UniProt P28845). Kind of test: biochemical. The settings on record: for IC50: Biological Test Example 1 IC50 (nM); for pIC50: IC50 Range, Biological Test Example 1; for inhibition at 0.1 µM: read-out: Average % inhibition at 100 nM.
The target of test [2] is T1, 11β-HSD1. Nature of the test: Biological Test Example 4: microsomal 11β-HSD1 in the presence of 50% human plasma. The settings on record: for Shift: IC50 in Test Example 4 divided by IC50 in Test Example 1.

The structures appear in SMILES notation. pIC50: −log10 of the molar value.

What is called IC50 is the concentration that gives 50% inhibition. Read a low IC50 as higher potency. In general, pIC50 refers to −log10 of the IC50, conventionally taken in molar units. Usually inhibition stands for the drop in the measured response relative to a control, in per cent.

T1 sequence (P28845 whole entry): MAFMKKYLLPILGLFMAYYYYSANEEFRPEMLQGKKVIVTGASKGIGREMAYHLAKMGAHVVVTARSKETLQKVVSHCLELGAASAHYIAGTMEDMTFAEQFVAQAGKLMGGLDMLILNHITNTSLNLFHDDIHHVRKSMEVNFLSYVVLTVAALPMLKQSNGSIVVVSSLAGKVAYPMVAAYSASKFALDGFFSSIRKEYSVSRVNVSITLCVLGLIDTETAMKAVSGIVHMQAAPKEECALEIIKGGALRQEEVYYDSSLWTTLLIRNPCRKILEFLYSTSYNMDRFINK

Consider `C[C@@H](c1ccc(-c2cccnc2)cc1)N1CC[C@](CCC(N)=O)(c2ccccc2)OC1=O` [EXAMPLE 47, 3-((R)-2-oxo-6-phenyl-3-((S)-1-(4-(pyridin-3-yl)phenyl)ethyl)-1,3-oxazinan-6-yl)propanamide], for which, at 11β-HSD1 [1], half-maximal inhibition (IC50) was put at 2.6 nM, the pIC50 was above 7.00 and the inhibition at 0.1 µM is 91%. Besides, on 11β-HSD1 [2], the pIC50 was 7.67.
For `C[C@@H](c1ccc(-c2ccncc2)cc1)N1CC[C@](CCC(N)=O)(c2ccccc2)OC1=O` [EXAMPLE 48, 3-((R)-2-oxo-6-phenyl-3-((S)-1-(4-(pyridin-4-yl)phenyl)ethyl)-1,3-oxazinan-6-yl)propanamide] the same measures were 1 nM, above 7.00, 94.3% and 8.41.
Regarding `C[C@@H](c1ccc(-c2ccccn2)cc1)N1CC[C@](CCO)(c2ccc(F)cc2)OC1=O` [EXAMPLE 57, (S)-6-(4-fluorophenyl)-6-(2-hydroxyethyl)-3-((S)-1-(4-(pyridin-2-yl)phenyl)ethyl)-1,3-oxazinan-2-one], on 11β-HSD1 [1], the midpoint of inhibition, the IC50, lay at 1 nM; the negative-log IC50 (pIC50) is above 7.00; the inhibition at 0.1 µM was 99.4%. Moreover, on 11β-HSD1 [2], the pIC50 was 7.72 and the Shift is given as 18.8.
On to `C[C@@H](c1ccc(-c2ccccn2)cc1)N1CC[C@](CCC(N)=O)(c2ccc(F)cc2)OC1=O` [EXAMPLE 60, 3-((R)-6-(4-fluorophenyl)-2-oxo-3-((S)-1-(4-(pyridin-2-yl)phenyl)ethyl)-1,3-oxazinan-6-yl)propanamide], for which, at 11β-HSD1 [1], it took 1.6 nM to reach half-maximal inhibition (IC50), the pIC50 was above 7.00 and the inhibition at 0.1 µM turned out to be 91.9%. Further, on 11β-HSD1 [2], the pIC50 is 7.68 and the Shift was 13.1.
For `COc1ccc(-c2ccc([C@H](C)N3CC[C@](CCO)(c4ccc(F)cc4)OC3=O)cc2)cn1` [EXAMPLE 63, (S)-6-(4-fluorophenyl)-6-(2-hydroxyethyl)-3-((S)-1-(4-(6-methoxypyridin-3-yl)phenyl)ethyl)-1,3-oxazinan-2-one] the same measures were 0.8 nM, above 7.00, 101%, 7.82 and 18.4.
Take `COc1ccc(-c2ccc([C@H](C)N3CC[C@](CCC(N)=O)(c4ccc(F)cc4)OC3=O)cc2)cn1` [EXAMPLE 66, 3-((R)-6-(4-fluorophenyl)-3-((S)-1-(4-(6-methoxypyridin-3-yl)phenyl)ethyl)-2-oxo-1,3-oxazinan-6-yl)propanamide]: at 11β-HSD1 [1], the midpoint of inhibition, the IC50, lay at 1.3 nM; the pIC50 is above 7.00; the inhibition at 0.1 µM is 95.6%. Also, on 11β-HSD1 [2], the pIC50 is 8.01.
For `C[C@@H](c1ccc(-c2ccncc2)cc1)N1CC[C@](CCC(N)=O)(c2ccc(F)cc2)OC1=O` [EXAMPLE 74, 3-((R)-6-(4-fluorophenyl)-2-oxo-3-((S)-1-(4-(pyridin-4-yl)phenyl)ethyl)-1,3-oxazinan-6-yl)propanamide] the same measures were 1.4 nM, above 7.00, 95.7% and 8.33.
With `Cc1cc(-c2ccc([C@H](C)N3CC[C@](CCC(=O)O)(c4ccc(F)cc4)OC3=O)cc2)ccn1` [EXAMPLE 77, 3-((R)-6-(4-fluorophenyl)-3-((S)-1-(4-(2-methylpyridin-4-yl)phenyl)ethyl)-2-oxo-1,3-oxazinan-6-yl)propanoic acid], at 11β-HSD1 [1], the IC50 was found to be 38.1 nM, the pIC50 is above 7.00 and the inhibition at 0.1 µM was 79.9%. On 11β-HSD1 [2], the pIC50 is 6.94 and the Shift came to 3.0.
As to `C[C@@H](c1ccc(-c2nccs2)cc1)N1CC[C@](CCCO)(c2ccc(F)cc2)OC1=O` [EXAMPLE 82, (R)-6-(4-fluorophenyl)-6-(3-hydroxypropyl)-3-((S)-1-(4-(thiazol-2-yl)phenyl)ethyl)-1,3-oxazinan-2-one], at 11β-HSD1 [1], the IC50 is 1.8 nM, the pIC50 was above 7.00 and the inhibition at 0.1 µM came out at 98.1%. In addition, at 11β-HSD1 [2], the pIC50 was 7.60.
`Cc1nc(C)c(-c2ccc([C@H](C)N3CC[C@](CCC(N)=O)(c4ccc(F)cc4)OC3=O)cc2)s1` [EXAMPLE 84, 3-((R)-3-((S)-1-(4-(2,4-dimethylthiazol-5-yl)phenyl)ethyl)-6-(4-fluorophenyl)-2-oxo-1,3-oxazinan-6-yl)propanamide]: on 11β-HSD1 [1], the midpoint of inhibition, the IC50, lay at 3.5 nM; the pIC50 was above 7.00; the inhibition at 0.1 µM was 93.3%. For the same compound, on 11β-HSD1 [2], the pIC50 is 7.91 and the Shift stood at 3.5.
`C[C@@H](c1ccc(-c2ccccn2)cc1)N1CC[C@](CCO)(c2ccccc2)OC1=O` [EXAMPLE 85, (S)-6-(2-hydroxyethyl)-6-phenyl-3-((S)-1-(4-(pyridin-2-yl)phenyl)ethyl)-1,3-oxazinan-2-one]: on 11β-HSD1 [1], the IC50 was found to be 0.9 nM, the pIC50 was above 7.00 and the inhibition at 0.1 µM came to 94.3%. For the same compound, the pIC50 on 11β-HSD1 [2] is 7.89.
Consider `C[C@@H](c1ccc(-c2ccccn2)cc1)N1CC[C@](CC(C)(C)O)(c2ccccc2)OC1=O` [EXAMPLE 86, (S)-6-(2-hydroxy-2-methylpropyl)-6-phenyl-3-((S)-1-(4-(pyridin-2-yl)phenyl)ethyl)-1,3-oxazinan-2-one], for which, on 11β-HSD1 [1], 0.6 nM corresponded to half-maximal inhibition (IC50), the pIC50 is above 7.00 and the inhibition at 0.1 µM was 99.6%. Moreover, on 11β-HSD1 [2], the pIC50 was 8.19 and the Shift came to 11.1.
As to `C[C@@H](c1ccc(-c2ccccn2)cc1)N1CC[C@](CCC(N)=O)(c2ccccc2)OC1=O` [EXAMPLE 88, 3-((R)-2-oxo-6-phenyl-3-((S)-1-(4-(pyridin-2-yl)phenyl)ethyl)-1,3-oxazinan-6-yl)propanamide], at 11β-HSD1 [1], the IC50 came out at 1.7 nM, the pIC50 is above 7.00 and the inhibition at 0.1 µM was 98.3%. Besides, at 11β-HSD1 [2], the pIC50 was 8.00.
`Cc1cccc(-c2ccc([C@H](C)N3CC[C@](CCCO)(c4ccccc4)OC3=O)cc2)n1` [EXAMPLE 90, (R)-6-(3-hydroxypropyl)-3-((S)-1-(4-(6-methylpyridin-2-yl)phenyl)ethyl)-6-phenyl-1,3-oxazinan-2-one]: on 11β-HSD1 [1], the midpoint of inhibition, the IC50, lay at 0.5 nM; the pIC50 was above 7.00; the inhibition at 0.1 µM was 96.7%. In addition, on 11β-HSD1 [2], the pIC50 is 7.87 and the Shift is 25.5.
With `COc1ccc(-c2ccc([C@H](C)N3CC[C@](CCO)(c4ccccc4)OC3=O)cc2)cn1` [EXAMPLE 92, (S)-6-(2-hydroxyethyl)-3-((S)-1-(4-(6-methoxypyridin-3-yl)phenyl)ethyl)-6-phenyl-1,3-oxazinan-2-one], on 11β-HSD1 [1], the IC50 is 0.5 nM, the pIC50 was above 7.00 and the inhibition at 0.1 µM is 97.3%. Further, on 11β-HSD1 [2], the pIC50 is 7.90 and the Shift was 23.7.
As for `Cc1cc(-c2ccc([C@H](C)N3CC[C@](CCO)(c4ccccc4)OC3=O)cc2)ccn1` [EXAMPLE 96, (S)-6-(2-hydroxyethyl)-3-((S)-1-(4-(2-methylpyridin-4-yl)phenyl)ethyl)-6-phenyl-1,3-oxazinan-2-one], on 11β-HSD1 [1], 0.7 nM corresponded to half-maximal inhibition (IC50), the pIC50 is above 7.00 and the inhibition at 0.1 µM came out at 99.8%. Moreover, the pIC50 on 11β-HSD1 [2] is 8.25.
Regarding `Cc1cc(-c2ccc([C@H](C)N3CC[C@](CCCNS(C)(=O)=O)(c4ccccc4)OC3=O)cc2)ccn1` [EXAMPLE 99, N-(3-((R)-3-((S)-1-(4-(2-methylpyridin-4-yl)phenyl)ethyl)-2-oxo-6-phenyl-1,3-oxazinan-6-yl)propyl)methanesulfonamide], on 11β-HSD1 [1], the IC50 came to 0.5 nM, the negative-log IC50 (pIC50) is above 7.00 and the inhibition at 0.1 µM turned out to be 98.5%. Besides, on 11β-HSD1 [2], the pIC50 was 8.10 and the Shift is given as 16.6.
For the compound `CC(=O)N(C)CCC[C@]1(c2ccccc2)CCN([C@@H](C)c2ccc(-c3ccnc(C)c3)cc2)C(=O)O1` [EXAMPLE 102, N-methyl-N-(3-((R)-3-((S)-1-(4-(2-methylpyridin-4-yl)phenyl)ethyl)-2-oxo-6-phenyl-1,3-oxazinan-6-yl)propyl)acetamide], at 11β-HSD1 [1], 3.6 nM corresponded to half-maximal inhibition (IC50), the pIC50 was above 7.00 and the inhibition at 0.1 µM was 94.3%. For the same compound, on 11β-HSD1 [2], the pIC50 is 7.20 and the Shift is reported as 17.3.
`Cc1cc(-c2ccc([C@H](C)N3CC[C@](CCNS(C)(=O)=O)(c4ccccc4)OC3=O)cc2)ccn1` [EXAMPLE 103, N-(2-((S)-3-((S)-1-(4-(2-methylpyridin-4-yl)phenyl)ethyl)-2-oxo-6-phenyl-1,3-oxazinan-6-yl)ethyl)methanesulfonamide]: on 11β-HSD1 [1], the IC50 was found to be 1.9 nM, the pIC50 was above 7.00 and the inhibition at 0.1 µM came out at 98.5%. Besides, at 11β-HSD1 [2], the pIC50 is 8.09 and the Shift is reported as 4.3.
`C[C@@H](c1ccc(-c2cnccn2)cc1)N1CC[C@](CCCO)(c2ccc(F)cc2)OC1=O` [EXAMPLE 108, (R)-6-(4-fluorophenyl)-6-(3-hydroxypropyl)-3-((S)-1-(4-(pyrazin-2-yl)phenyl)ethyl)-1,3-oxazinan-2-one]: at 11β-HSD1 [1], the IC50 was found to be 1.8 nM, the pIC50 is above 7.00 and the inhibition at 0.1 µM is 98.1%. Besides, at 11β-HSD1 [2], the pIC50 is 8.15 and the Shift was determined as 4.0.
For `C[C@@H](c1ccc(-c2ccc(C(F)(F)F)cn2)cc1)N1CC[C@](CCCO)(c2ccc(F)cc2)OC1=O` [EXAMPLE 109, (R)-6-(4-fluorophenyl)-6-(3-hydroxypropyl)-3-((S)-1-(4-(5-(trifluoromethyl)pyridin-2-yl)phenyl)ethyl)-1,3-oxazinan-2-one], at 11β-HSD1 [1], half-maximal inhibition (IC50) required 2.9 nM, the negative-log IC50 (pIC50) was above 7.00 and the inhibition at 0.1 µM stood at 91.5%. Moreover, on 11β-HSD1 [2], the pIC50 was 7.50 and the Shift was found to be 11.0.
